The values that follow come from patent publication US20240417387A1, “SULFONYLPIPERAZINYL COMPOUNDS FOR TREATMENT OF BACTERIAL INFECTIONS” (Hoffmann-La Roche Inc., priority 2021, published 2024).

The nature of series [1]: Human microsome stability assay. The class given is in vitro ADME. The conditions noted are these: human liver microsomes 0.5 mg/mL, 37° C., pH 7.4, NADPH regenerating system. In outline: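 Compound […] with 0.5 mg/mL human liver microsomal protein in 100 mM potassium phosphate pH 7.4, 10 min preincubation at 37 °C, started with NADPH regenerating system. Sampled 0–30 min, remaining compound by LC-MS/MS; clearance binned low <7, medium 7–16.2, high >16.2 mL/min/kg.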

In series [2] the test system is Escherichia coli ATCC 25922. In words: Minimal Inhibitory Concentration (MIC) broth dilution assay, E. coli ATCC 25922. In kind it is cell-based. Conditions: Escherichia coli, ATCC25922, 20 h, read-out: MIC E. coli ATCC 25922. In a few lines:
(§1)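 Broth microdilution with twofold compound series in cation-adjusted Mueller Hinton broth, inoculum 5×10^5 CFU/mL, applied to each strain. Plates incubated 20 h at 35 °C in ambient air. MIC […] recorded as the lowest concentration with no visible growth, read by eye.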

Series [3] has as its system Escherichia coli BW 25113. In words: Minimal Inhibitory Concentration (MIC) broth dilution assay, E. coli BW 25113. In kind it is cell-based. The conditions noted are these: Escherichia coli, BW25113, 20 hours at 35° C., CAMHB, read-out: MIC E. coli K-12 BW 25113. In outline: as §1
Series [4] concerns Klebsiella pneumonia ATCC 43816. Description: Minimal Inhibitory Concentration (MIC) broth dilution assay, K. pneumonia ATCC 43816. In kind it is cell-based. The conditions noted are these: Klebsiella pneumoniae, ATCC43816, 20 hours at 35° C., CAMHB, read-out: MIC K. p ATCC 43816. In outline: as §1
Series [5] concerns the target Escherichia coli UDP-2,3-diacylglucosamine hydrolase (LpxH) (Escherichia coli (strain K12), UniProt P43341). Description: Enzymatic IC50 assay of Escherichia coli LpxH (UMP/CMP-Glo luminescence). The class given is biochemical. Conditions: Enzymatic IC50 against Escherichia coli LpxH; read-out: IC50 (converted). In a few lines:
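LpxH (2 nM) preincubated 10 min at room temperature with compound (100 μM to 1.7 nM) in Tris-HCl pH7.5 buffer with 2.5 mM MnCl2, then reacted with 5 μM UDP-DAG for 20 min. Reaction heat-stopped at 95° C.; released UMP converted to ATP and read by luciferase luminescence (UMP/CMP-Glo).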

In the next series the test system is LPS synthesis pathway. Conditions: reported in Bioorganic Chemistry (2020), 102, 104055; cited from earlier work.
Series [6] deals with efflux-deficient Escherichia coli strains. Conditions: reported in Bioorganic Chemistry (2020), 102, 104055; cited from earlier work.

Converted amounts (≈) assume the structure as drawn.

Escherichia coli UDP-2,3-diacylglucosamine hydrolase (LpxH), sequence (P43341 whole entry): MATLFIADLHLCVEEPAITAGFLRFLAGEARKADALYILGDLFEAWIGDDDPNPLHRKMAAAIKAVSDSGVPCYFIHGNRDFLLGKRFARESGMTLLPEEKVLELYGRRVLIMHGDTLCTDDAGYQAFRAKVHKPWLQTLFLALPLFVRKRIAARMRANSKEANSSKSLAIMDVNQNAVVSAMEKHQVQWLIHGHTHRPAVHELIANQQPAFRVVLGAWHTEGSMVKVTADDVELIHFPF

As to `NCCCNC(=O)[C@H]1CC[C@H](C(F)(F)c2cc(Cl)nc(N3CCN(S(=O)(=O)c4ccc(N5C[C@H](CO)OC5=O)cc4)CC3)c2)CC1` [Example 059, Trans-N-(3-aminopropyl)-4-[[2-chloro-6-[4-[4-[(5R)-5-(hydroxymethyl)-2-oxo-oxazolidin-3-yl]phenyl]sulfonylpiperazin-1-yl]-4-pyridyl]-difluoro-methyl]cyclohexanecarboxamide], in series [1], the “Clearance of Human microsome” value was 6.15 mL/min/kg. In addition, the MIC in series [2], in series [3] and in series [4] was 1.2 µg/mL (≈ 1.75 µM) each time. Also, the IC50 in series [5] was less than 2.92 nM.
On to `NCCCNC(=O)[C@H]1CC[C@H](C(F)(F)c2cc(Cl)nc(N3CCN(S(=O)(=O)c4ccc(N5CC(N6CCNCC6)CC5=O)cc4)CC3)c2)CC1` (stereo partly drawn) [Example 060, Trans-N-(3-aminopropyl)-4-[[2-chloro-6-[4-[4-(2-oxo-4-piperazin-1-yl-pyrrolidin-1-yl)phenyl]sulfonylpiperazin-1-y1]-4-pyridyl]-difluoro-methyl]cyclohexanecarboxamide], for which, in series [1], the “Clearance of Human microsome” value worked out at 8.12 mL/min/kg. The results for the minimum inhibitory concentration (MIC) in series [2], in series [3] and in series [4] were 1.8 µg/mL (≈ 2.44 µM), 2.4 µg/mL (≈ 3.26 µM) and 1.2 µg/mL (≈ 1.63 µM), respectively. In addition, the half-maximal inhibitory concentration (IC50) in series [5] was less than 2.71 nM.
The matching figures for `NCCCNC(=O)[C@H]1CC[C@H](C(F)(F)c2cc(Cl)nc(N3CCN(S(=O)(=O)c4ccc(N5C[C@H](N)CC5=O)nc4)CC3)c2)CC1` [Example 061, Trans-N-(3-aminopropyl)-4-[[2-chloro-6-[4-[[6-[(4R)-4-amino-2-oxo-pyrrolidin-1-yl]-3-pyridyl]sulfonyl]piperazin-1-yl]-4-pyridyl]-difluoro-methyl]cyclohexanecarboxamide]: 6.15 mL/min/kg, 1.1 µg/mL (≈ 1.64 µM), 1.1 µg/mL (≈ 1.64 µM), 1.1 µg/mL (≈ 1.64 µM) and 2.99 nM.
For the compound `NCCNCCNC(=O)[C@H]1CC[C@H](C(F)(F)c2cc(Cl)nc(N3CCN(S(=O)(=O)c4ccc(N5C[C@H](N)CC5=O)cc4)CC3)c2)CC1` [Example 072, Trans-N-[2-(2-aminoethylamino)ethyl]-4-[[2-chloro-6-[4-[4-[(4R)-4-amino-2-oxo-pyrrolidin-1-yl]phenyl]sulfonylpiperazin-1-yl]-4-pyridyl]-difluoro-methyl]cyclohexanecarboxamide], the “Clearance of Human microsome” value in series [1] turned out to be 6.15 mL/min/kg. Besides, the MIC in series [2] was determined as 1.1 µg/mL (≈ 1.58 µM); in series [3], 0.57 µg/mL (≈ 0.817 µM); in series [4] it was 1.1 µg/mL (≈ 1.58 µM). For the same compound, the IC50 in series [5] is 4.3 nM.
Take `C[N+](C)(CCN)CCNC(=O)[C@H]1CC[C@H](C(F)(F)c2cc(Cl)nc(N3CCN(S(=O)(=O)c4ccc(N5C[C@H](N)CC5=O)cc4)CC3)c2)CC1` [Example 073, Trans-2-aminoethyl-[2-[[4-[[2-chloro-6-[4-[4-[(4R)-4-amino-2-oxo-pyrrolidin-1-yl]phenyl]sulfonylpiperazin-1-yl]-4-pyridyl]-difluoro-methyl]cyclohexanecarbonyl]amino]ethyl]-dimethyl-ammonium]: the “Clearance of Human microsome” value in series [1] is listed as 6.15 mL/min/kg. Further, the minimum inhibitory concentration (MIC) was found to be 1.2 µg/mL in series [2], 1.2 µg/mL in series [3] and 2.4 µg/mL in series [4]. The IC50 in series [5] was less than 2.75 nM.
For the compound `NCC[N+]1(CCNC(=O)[C@H]2CC[C@H](C(F)(F)c3cc(Cl)nc(N4CCN(S(=O)(=O)c5ccc(N6C[C@H](N)CC6=O)cc5)CC4)c3)CC2)CCCC1` [Example 074, Trans-N-[2-[1-(2-aminoethyl)pyrrolidin-1-ium-1-yl]ethyl]-4-[[2-[4-[4-[(4R)-4-amino-2-oxo-pyrrolidin-1-yl]phenyl]sulfonylpiperazin-1-yl]-6-chloro-4-pyridyl]-difluoro-methyl]cyclohexanecarboxamide], the “Clearance of Human microsome” value in series [1] is on record as 6.15 mL/min/kg. Moreover, the minimal inhibitory concentration (MIC) in series [2], in series [3] and in series [4] was 1.9 µg/mL in each case. The 50% inhibitory concentration (IC50) in series [5] was 39.9 nM.
For `NCC(=O)NCCNC(=O)[C@H]1CC[C@H](C(F)(F)c2cc(Cl)nc(N3CCN(S(=O)(=O)c4ccc(N5C[C@H](N)CC5=O)cc4)CC3)c2)CC1` [Example 075, Trans-N-[2-[(2-aminoacetyl)amino]ethyl]-4-[[2-chloro-6-[4-[4-[(4R)-4-amino-2-oxo-pyrrolidin-1-yl]phenyl]sulfonylpiperazin-1-yl]-4-pyridyl]-difluoro-methyl]cyclohexanecarboxamide], the “Clearance of Human microsome” value in series [1] came to 10.47 mL/min/kg. Further, the MIC in series [2] stood at 2.3 µg/mL (≈ 3.23 µM); in series [3], 2.3 µg/mL (≈ 3.23 µM); in series [4], 1.2 µg/mL (≈ 1.69 µM). Further, the half-maximal inhibitory concentration (IC50) in series [5] is 8.44 nM.
As for `COC(CN)CNC(=O)[C@H]1CC[C@H](C(F)(F)c2cc(Cl)nc(N3CCN(S(=O)(=O)c4ccc(N5C[C@H](N)CC5=O)cc4)CC3)c2)CC1` (stereo partly drawn) [Example 076, Trans-N-(3-amino-2-methoxy-propyl)-4-[[2-chloro-6-[4-[4-[(4R)-4-amino-2-oxo-pyrrolidin-1-yl]phenyl]sulfonylpiperazin-1-yl]-4-pyridyl]-difluoro-methyl]cyclohexanecarboxamide], the “Clearance of Human microsome” value in series [1] turned out to be 9.06 mL/min/kg. Further, the MIC in series [2], in series [3] and in series [4] was 1.1 µg/mL (≈ 1.58 µM) in each case. Moreover, the half-maximal inhibitory concentration (IC50) in series [5] is less than 2.86 nM.
With `CC(=O)N1CCc2cc(S(=O)(=O)N3CCN(c4cc(Cl)cc(C(F)(F)F)c4)CC3)ccc21` [JH-LPH-33, reference compound], the “Clearance of Human microsome” value in series [1] was found to be 20.94 mL/min/kg. In the series on LPS synthesis pathway, the “LPS synthesis pathway inhibition activity” value is recorded as “LPS synthesis pathway inhibition activity”. The MIC in series [2], in series [3] and in series [4] was greater than 24 µg/mL in each case. Further, the “antibiotic activity against efflux-deficient Escherichia coli strains” value in series [6] was “antibiotic activity”. Besides, in series [5], the IC50 is 293 nM.
